The target of one experiment is T1, full length human FXR (Homo sapiens, UniProt Q96RI1).
T1 construct: expressed in transfected cells
T1 sequence (Q96RI1 1-472 isoform Q96RI1-2): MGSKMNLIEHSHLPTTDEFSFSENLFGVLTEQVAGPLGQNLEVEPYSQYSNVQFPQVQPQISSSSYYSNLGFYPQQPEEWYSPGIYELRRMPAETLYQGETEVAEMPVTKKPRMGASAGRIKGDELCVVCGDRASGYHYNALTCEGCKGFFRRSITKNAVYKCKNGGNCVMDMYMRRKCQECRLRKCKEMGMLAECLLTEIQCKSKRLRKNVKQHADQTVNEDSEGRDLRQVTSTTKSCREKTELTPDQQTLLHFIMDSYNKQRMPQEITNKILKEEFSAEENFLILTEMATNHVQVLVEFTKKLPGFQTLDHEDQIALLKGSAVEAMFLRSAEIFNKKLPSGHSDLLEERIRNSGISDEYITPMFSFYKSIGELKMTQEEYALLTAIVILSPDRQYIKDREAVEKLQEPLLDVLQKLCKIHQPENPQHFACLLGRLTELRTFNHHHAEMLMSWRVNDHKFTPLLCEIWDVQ
T1 sequence (P19793 1-462 partner): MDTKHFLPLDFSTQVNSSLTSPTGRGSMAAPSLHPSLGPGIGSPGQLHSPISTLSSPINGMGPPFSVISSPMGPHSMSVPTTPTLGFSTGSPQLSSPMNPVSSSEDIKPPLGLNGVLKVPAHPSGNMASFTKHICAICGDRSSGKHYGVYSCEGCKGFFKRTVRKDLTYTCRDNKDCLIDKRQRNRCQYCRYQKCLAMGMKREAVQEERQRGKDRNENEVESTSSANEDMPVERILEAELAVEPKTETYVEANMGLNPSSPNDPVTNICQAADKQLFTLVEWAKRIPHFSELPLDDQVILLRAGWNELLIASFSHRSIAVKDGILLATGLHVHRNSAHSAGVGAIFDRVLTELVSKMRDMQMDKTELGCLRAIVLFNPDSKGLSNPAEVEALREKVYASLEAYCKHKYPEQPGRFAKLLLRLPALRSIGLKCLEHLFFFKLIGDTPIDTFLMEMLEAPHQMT
Nature of the experiment: transactivation of FXR mediated transcription in a HEK293 reporter cell line (luciferase). In kind it is cell-based. The conditions noted are these: for Emax: HEK293, read-out: EFFIC AVG (average efficacy, % activity relative to CDCA control agonist), relative to CDCA control agonist; for pEC50: HEK293 FXR reporter cell line. The text has this:
Tables 3, 4, 5 and 6 illustrate the preferred compounds according to the invention that can mediate transactivation of FXR mediated transcription in a HEK293 reporter cell line.
Stable HEK293FXR reporter cell lines were generated by stably transfecting with the pTRexDest30 (Invitrogen) derivatives pTRexDest30-hFXR, pTRexDest30-hRXR and the pGL2promoter (Promega) derivative pGL2promoter-FXRRE. The full length human FXR (accession U68233) and the full length human RXRα (accession P19793) were cloned into the pTRexDest30 applying the manufacturer protocols for the Gateway™ system (Invitrogen).
The FXR response elements were cloned (upper case and undrelined). 5′-cccaGGGTGAaTAACCTcggggctctgtccctccaatcccaGGGTGAaTAACCTcggg 3′ (SEQ ID NO. 5) was created from the human IBAB-P promoter (Grober et al 1999, JBC 274, pp. 29749-29754). A stable clone was selected and seeded at a density of […] cells per well in 48 well plates. Luciferase reporter activity was measured in duplicates from extracts of cells after incubating cells in culture medium (DMEM [Gibco-BRL]+10% FCS [PAA laboratories]) for 16 hours (5% CO2, 37° C.) containing 0.5% DMSO (control) or 0.5% DMSO with increasing concentrations of TR0800012996.

The next experiment addresses T2, human FXR alpha (NR1H4) (Homo sapiens, UniProt Q96RI1).
T2 construct: agonist activity at the NR1H4 human nuclear receptor; fused on or other part: GST at the N-terminus (pDest15) in the TR-FRET test
T2 sequence (Q96RI1 1-486): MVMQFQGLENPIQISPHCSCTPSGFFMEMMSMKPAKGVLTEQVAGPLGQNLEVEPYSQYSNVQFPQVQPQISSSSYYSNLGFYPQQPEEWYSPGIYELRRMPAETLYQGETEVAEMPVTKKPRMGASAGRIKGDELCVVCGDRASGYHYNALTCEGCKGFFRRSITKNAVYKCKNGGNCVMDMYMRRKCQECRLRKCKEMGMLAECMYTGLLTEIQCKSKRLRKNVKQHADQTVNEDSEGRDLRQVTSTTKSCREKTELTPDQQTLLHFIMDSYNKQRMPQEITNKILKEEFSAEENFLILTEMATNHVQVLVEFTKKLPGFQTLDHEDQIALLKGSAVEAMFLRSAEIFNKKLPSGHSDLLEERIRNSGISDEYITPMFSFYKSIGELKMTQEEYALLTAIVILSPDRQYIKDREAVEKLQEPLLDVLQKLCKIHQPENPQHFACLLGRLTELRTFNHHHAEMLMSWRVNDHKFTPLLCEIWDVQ
Nature of the experiment: FXR binding / FXR-Tif 2 coactivator interaction, LANCE TR-FRET. The protocol: In particular, the invention relates to compounds as described above wherein the compounds are capable of binding the NR1H4 receptor protein or a portion thereof according to SEQ ID NOS 1-4 shown in FIGS. 4A-4D, respectively, or a mammalian homologue thereof. The claimed compound can bind to the NR1H4 receptor protein or a portion thereof in a mixture comprising 10-200 ng of NR1H4 receptor protein or a portion thereof, preferably the ligand binding domain, 20 mM Tris/HCl at pH 7.9; 60 mM KCl; 5 mM MgCl2; 160 ng/μl BSA in a total volume of preferably about 25 μl.
For in vitro screening for compounds which influence FXR binding to coactivators, a fragment of the open reading frame of human FXR alpha (NR1H4-(Acc. No:AF384555)) encoding aminoacids 187-472 was amplified by standard RT PCR procedures (see SEQ ID NOS. 1 and 2 in FIGS. 4A and 4B, respectively). The starting material was total RNA derived from human liver. The resulting cDNA obtained after reverse transcription was subsequently cloned using the Gateway™ recombination technology (Invitrogen, USA) into the expression plasmid pDest15 (Invitrogen, USA). This construct was used to express a recombinant GST-FXR fusion protein in E. coli (BL21 strain). A pDEST 17 derivative clone harboring an additional sequence encoding amino acids 548-878 of human TIF2 (Acc. No: XM—011633 RefSeq) was constructed using Gateway™ recombination technology (Invitrogen, USA) in order to obtain a construct which was used to express recombinant His-tagged TIF2 fragment in E. coli. For E. coli expression of both constructs, plasmid DNA was transformed into chemically competent E. coli BL21 (Invitrogen, USA) and cells were grown to an OD600 of 0.4-0.7 before expression was induced by addition of 0.5 mM IPTG according instructions of the manufacturer (Invitrogen). After induction for 8 hours at 30° C., the cells were harvested by centrifugation for 10 minutes at 5000×g. Fusion proteins were affinity purified using Glutathion sepharose (Pharmacia) or Ni-NTA Agarose (QIAGEN) according to the instructions of the respective manufacturer. Recombinant proteins were dialyzed against 20 mM Tris/HCL pH 7.9; 60 mM KCl; 5 mM MgCl2; 1 mM DTT, 0.2 mM PMSF; 10% glycerol. The TIF2 fragment was subsequently biotinylated by addition of 40-120 μl of a biotinamidocaproate N-hydroxysuccinimide-ester (Sigma) solution (20 mg/ml in DMSO). […]
For screening of the compound libraries as provided for by the methods described in Examples 2, 3 and 4 below for substances which influence the FXR/Tif 2 interaction, Perkin Elmer LANCE technology was used. […] For ease of handling and reduction of background from compound fluorescence, LANCE technology makes use of generic fluorophore labels and time resoved detection. […]
For orientation: Time-resolved FRET reads energy transfer from a long-lived donor to a nearby acceptor.

Each structure is given as a SMILES string. pEC50: −log10 of the molar value. Where two headings read alike, the source gives them in different places.

In the case of `O=C(O)C1CCC(CNc2nc(-c3ccccc3O)c(Cc3c(F)cccc3F)s2)CC1` (stereo not shown) [LN0000006316], the Emax was 309% on full length human FXR (Table 6) and 110% on full length human FXR (Tables 3-5). The compound also showed a pEC50 at full length human FXR (Tables 3-5) of 6.70.

On to `O=C(O)c1ccc(CNc2nc(-c3ccccc3O)c(Cc3c(F)cccc3F)s2)cc1` [LN0000006317], for which the Emax on full length human FXR (Table 6) stood at 223%; at full length human FXR (Tables 3-5), 115%. The same compound showed a pEC50 on full length human FXR (Tables 3-5) of 5.84.

In the case of `O=C(O)C1CCC(CNc2nc(-c3ccccc3O)c(Cc3cccc(F)c3F)s2)CC1` (stereo not shown) [LN0000006322], the Emax on full length human FXR (Tables 3-5) stood at 115%.

For the compound `O=C(O)c1ccc(CNc2nc(-c3ccccc3O)c(Cc3cccc(F)c3F)s2)cc1` [LN0000006323], at full length human FXR (Tables 3-5), the Emax was determined as 86% and the pEC50 was 6.36.

For `COc1ccccc1Cc1sc(NCC2CCC(C(=O)O)CC2)nc1-c1ccccc1O` (stereo not shown) [LN0000006328], on full length human FXR (Tables 3-5), the Emax turned out to be 116% and the pEC50 was 5.35.

Turning to `COc1ccccc1Cc1sc(NCc2ccc(C(=O)O)cc2)nc1-c1ccccc1O` [LN0000006329], on full length human FXR (Tables 3-5), the Emax was 105% and the pEC50 is 6.14.

In the case of `O=C(O)CCCCCNc1nc(-c2ccccc2O)c(Cc2cccc(F)c2F)s1` [LN0000006346], on full length human FXR (Tables 3-5), the Emax came out at 63% and the pEC50 was 5.29.

Turning to `COc1ccccc1Cc1sc(NCCCCCC(=O)O)nc1-c1ccccc1O` [LN0000006347], at full length human FXR (Tables 3-5), the Emax amounted to 66% and the pEC50 was 5.51.

Consider `O=C(O)C1CCC(CNc2nc(-c3cccc(O)c3)c(Cc3c(F)cccc3F)s2)CC1` (stereo not shown) [LN0000006348], for which, on full length human FXR (Tables 3-5), the Emax is 109% and the pEC50 is 5.62.

Take `O=C(O)c1ccc(CNc2nc(-c3cccc(O)c3)c(Cc3c(F)cccc3F)s2)cc1` [LN0000006349]: on full length human FXR (Tables 3-5), the Emax came out at 66% and the pEC50 was 5.39.

On to `O=C(O)C1CCC(CNc2nc(-c3cccc(O)c3)c(Cc3c(Cl)cccc3Cl)s2)CC1` (stereo not shown) [LN0000006365], for which the Emax on full length human FXR (Table 6) was found to be 340%. In addition, on full length human FXR (Tables 3-5), the Emax is 92% and the pEC50 was 6.44.

On to `O=C(O)C1CCC(CNc2nc(-c3ccccc3O)c(Cc3c(F)cccc3F)s2)CC1` (stereo not shown) [formula (III)], for which, on human FXR alpha (NR1H4) (read-out: EC50 (effective binding concentration at FXR, half-maximal effective concentration)), the pEC50 is 6.70.

Consider `O=C(O)C1CCC(CNc2nc(-c3cccc(O)c3)c(Cc3c(Cl)cccc3Cl)s2)CC1` (stereo not shown) [formula (IV)], for which, at human FXR alpha (NR1H4), the “agonist activity at the NR1H4 human nuclear receptor” value (“agonist activity” below) is “active as agonist”.

Take `O=C(O)c1ccc(CNc2nc(-c3ccccc3O)c(Cc3cccc(F)c3F)s2)cc1` [formula (V)]: the “agonist activity” value on human FXR alpha (NR1H4) is given as “active as agonist”.

On to `COc1ccccc1Cc1sc(NCc2ccc(C(=O)O)cc2)nc1-c1ccccc1O` [formula (VI)], for which the “agonist activity” value on human FXR alpha (NR1H4) is “active as agonist”.

Source of the values: patent US6974830B2, “NR1H4 nuclear receptor binding compounds” (Phenix Pharmaceuticals AG, priority 2001, dated 2005).
